Values quoted from earlier work, collected in US20240377385A1, “METHODS AND COMPOSITIONS OF MATTER FOR TREATING CANCER AND PREDICTING RESPONSE TO THERAPY” (ICCA INC., priority 2023, published 2024).

Tests used:
T cell and B cell = conditions: high dose; in vitro; cited from earlier work
[1] = tested on: PAIII androgen-independent syngeneic prostate cancer cell line; conditions: daily intraperitoneal administration for 30 days, evaluation at day 40; cited from earlier work
neovascularization = conditions: cited from earlier work
[2] = tested on: hypoxia inducible factor (HIF)-1; conditions: cited from earlier work
S-180 sarcoma = conditions: parenteral administration; cited from earlier work
[3] = tested on: human xenografted glioma, ovarian, and neuroblastoma cells; conditions: cited from earlier work
vascular cord formation = conditions: in vivo administration; cited from earlier work
dendritic cells = conditions: cited from earlier work
NK = conditions: high dose; cited from earlier work
HUVEC = conditions: in vitro; cited from earlier work
[4] = tested on: battery of tumor cell lines; conditions: in vitro; cited from earlier work
[5] = tested on: monocytes derived from human peripheral blood; conditions: 12 hour exposure; cited from earlier work

Compound	T cell and B cell proliferative responses as well as IL-2 secretion (T cell and B cell)	pulmonary and lymphatic metastasis [1]	tumor growth [1]	neovascularization (neovascularization)	activation of the hypoxia inducible factor (HIF)-1 [2]	angiogenesis and the pro-angiogenic factors bFGF, VEGF, and MMP-2 (S-180 sarcoma)	tumor growth (S-180 sarcoma)	in vivo inhibition of xenografted cells [3]	vascular cord formation (vascular cord formation)	T cell activating ability of dendritic cells (dendritic cells)	NK cytotoxic activity (NK)	HUVEC proliferation (HUVEC)	cytotoxicity of Docetaxel, Epirubicin, Irinotecan and 5-FU [4]	FcgammaR-mediated cytokine production and antibody-dependent cellular cytotoxicity by monocytes [5]
O=C1O[C@H]([C@@H](O)CO)C(O)=C1O [AA, ascorbic acid]	inhibits	reduction	significant inhibition	suppressing neovascularization	suppresses activation	suppression	reduced tumor growth	successful in vivo inhibition	suppressed vascular cord formation	inhibit	inhibits	inhibits	Enhancement	–
CCOCc1nc2c(N)nc3ccccc3c2n1CC(C)(C)O [Group R-848, resiquimod]	–	–	–	–	–	–	–	–	–	–	–	–	–	increased
